Earlier results on four molecules are cited in publication PMC8288134, “Synthesis, potential antitumor activity, cell cycle analysis, and multitarget mechanisms of novel hydrazones incorporating a 4-methylsulfonylbenzene scaffold: a molecular docking study” (Journal of Enzyme Inhibition and Medicinal Chemistry, 2021).

The structures appear in SMILES notation. Some results are limits rather than exact numbers.

Series [1] has as its system PRMI-8226. Also noted: method as in https://dtp.cancer.gov/dtpstandard/dwindex/index.jsp. Conditions: reference drugs, ref https://dtp.cancer.gov/dtpstandard/dwindex/index.jsp; cited from earlier work.
In series [2] the test system is HT29. Also noted: method as in https://dtp.cancer.gov/dtpstandard/dwindex/index.jsp. Particulars: reference drugs, ref https://dtp.cancer.gov/dtpstandard/dwindex/index.jsp; cited from earlier work.
Series [3] has as its system CNS cancer tumour cell lines. Particulars: cited from earlier work; for GI50: read-out: GI50 (subpanel average), reference drugs, ref https://dtp.cancer.gov/dtpstandard/dwindex/index.jsp; for CC50: read-out: LC50 (subpanel average), reference drugs, ref https://dtp.cancer.gov/dtpstandard/dwindex/index.jsp; for TGI (subpanel average): reference drugs, ref https://dtp.cancer.gov/dtpstandard/dwindex/index.jsp.

Series [4] relates to leukaemia tumour cell lines. Particulars: cited from earlier work; for GI50: read-out: GI50 (subpanel average), reference drugs, ref https://dtp.cancer.gov/dtpstandard/dwindex/index.jsp; for CC50: read-out: LC50 (subpanel average), reference drugs, ref https://dtp.cancer.gov/dtpstandard/dwindex/index.jsp; for TGI (subpanel average): reference drugs, ref https://dtp.cancer.gov/dtpstandard/dwindex/index.jsp.

Series [5] has as its system MDA-MB-231/ATCC. Further details: method as in https://dtp.cancer.gov/dtpstandard/dwindex/index.jsp. Particulars: reference drugs, ref https://dtp.cancer.gov/dtpstandard/dwindex/index.jsp; cited from earlier work.
Series [6] concerns A549/ATCC. Further details: method as in https://dtp.cancer.gov/dtpstandard/dwindex/index.jsp. Particulars: reference drugs, ref https://dtp.cancer.gov/dtpstandard/dwindex/index.jsp; cited from earlier work.
Series [7] concerns MDA-MB-435. Further details: method as in https://dtp.cancer.gov/dtpstandard/dwindex/index.jsp. Particulars: reference drugs, ref https://dtp.cancer.gov/dtpstandard/dwindex/index.jsp; cited from earlier work.
The subject of series [8] is M14. Also noted: method as in https://dtp.cancer.gov/dtpstandard/dwindex/index.jsp. Conditions: reference drugs, ref https://dtp.cancer.gov/dtpstandard/dwindex/index.jsp; cited from earlier work.
Series [9] concerns U251. Also noted: method as in https://dtp.cancer.gov/dtpstandard/dwindex/index.jsp. Particulars: reference drugs, ref https://dtp.cancer.gov/dtpstandard/dwindex/index.jsp; cited from earlier work.
Series [10] deals with 786-0. Also noted: method as in https://dtp.cancer.gov/dtpstandard/dwindex/index.jsp. Conditions: reference drugs, ref https://dtp.cancer.gov/dtpstandard/dwindex/index.jsp; cited from earlier work.
Series [11] has as its system UO-31. Further details: method as in https://dtp.cancer.gov/dtpstandard/dwindex/index.jsp. Particulars: reference drugs, ref https://dtp.cancer.gov/dtpstandard/dwindex/index.jsp; cited from earlier work.
Series [12] deals with HCC-2998. Further details: method as in https://dtp.cancer.gov/dtpstandard/dwindex/index.jsp. Conditions: reference drugs, ref https://dtp.cancer.gov/dtpstandard/dwindex/index.jsp; cited from earlier work.
The subject of series [13] is NCI-H23. Also noted: method as in https://dtp.cancer.gov/dtpstandard/dwindex/index.jsp. Particulars: reference drugs, ref https://dtp.cancer.gov/dtpstandard/dwindex/index.jsp; cited from earlier work.
The test system of series [14] is SK-MEL-5. Also noted: method as in https://dtp.cancer.gov/dtpstandard/dwindex/index.jsp. Particulars: reference drugs, ref https://dtp.cancer.gov/dtpstandard/dwindex/index.jsp; cited from earlier work.
Series [15] concerns MOLT-4. Further details: method as in https://dtp.cancer.gov/dtpstandard/dwindex/index.jsp. Particulars: reference drugs, ref https://dtp.cancer.gov/dtpstandard/dwindex/index.jsp; cited from earlier work.
Series [16] has as its system UACC-257. Further details: method as in https://dtp.cancer.gov/dtpstandard/dwindex/index.jsp. Particulars: reference drugs, ref https://dtp.cancer.gov/dtpstandard/dwindex/index.jsp; cited from earlier work.
In series [17] the test system is OVCAR-8. Further details: method as in https://dtp.cancer.gov/dtpstandard/dwindex/index.jsp. Conditions: reference drugs, ref https://dtp.cancer.gov/dtpstandard/dwindex/index.jsp; cited from earlier work.
Series [18] concerns HCT-116. Further details: method as in https://dtp.cancer.gov/dtpstandard/dwindex/index.jsp. Particulars: reference drugs, ref https://dtp.cancer.gov/dtpstandard/dwindex/index.jsp; cited from earlier work.

Take `Cc1ccc(-c2cc(C(F)(F)F)nn2-c2ccc(S(N)(=O)=O)cc2)cc1` [Celecoxib, celecoxib]: the GI50 was 3.98 µM in series [1]; 15.8 µM in series [2]; 17.2 µM in [3]; 12.3 µM in series [4]; 15.8 µM in [5]; 15.8 µM in series [6]. Moreover, the GI50 was 15.8 µM in series [7]; 63.1 µM in series [8]; 15.8 µM in series [9]; 39.8 µM in series [10]; 15.8 µM in series [11]; 15.8 µM in series [12]. Also, the GI50 is 15.8 µM in [13]; 15.8 µM in series [14]; 15.8 µM in series [15]; 19.9 µM in series [16]; 19.9 µM in series [17]. Besides, the CC50 in [3] is 58.8 µM; in series [4] it was 67.1 µM. For the same molecule, the “TGI (subpanel average)” value in [3] is recorded as 31.62 µM; in series [4], 29.27 µM.
For the molecule `C#Cc1cccc(Nc2ncnc3cc(OCCOC)c(OCCOC)cc23)c1` [Erlotinib, erlotinib], the GI50 in series [1] was 25.1 µM; in series [2], 63.1 µM; in series [3], 17 µM; in series [4] it was 27.9 µM; in [5], 6.31 µM; in [6] it was 10 µM. The GI50 in [7] is 19.9 µM; in [8], 6.31 µM; in series [9], 25.1 µM; in series [18], 6.31 µM; in series [10], 10 µM; in series [11] it was 1 µM. Also, the GI50 was 79.4 µM in [12]; 31.6 µM in series [13]; 25.1 µM in [15]; 100 µM in [16]; 7.94 µM in series [17]. The CC50 in series [3] and in [4] was greater than 100 µM throughout. Moreover, the “TGI (subpanel average)” value in [3] is 82.11 µM; in [4], 96.57 µM.
Consider `COc1cc2ncnc(Nc3ccc(F)c(Cl)c3)c2cc1OCCCN1CCOCC1` [Gefitinib, gefitinib], for which the GI50 in [2] is 3.98 µM; in series [3] it was 5.64 µM; in series [4] it was 2.56 µM; in series [5], 3.98 µM; in series [6], 2.51 µM; in [7] it was 3.16 µM. Also, the GI50 in series [8] was 2 µM; in [9] it was 3.16 µM; in series [18], 3.16 µM; in series [10], 3.16 µM; in series [11] it was 1.58 µM; in series [12], 2.51 µM. The GI50 is 2.51 µM in series [13], 3.16 µM in series [14], 2 µM in [15] and 2.51 µM in series [16]. Also, the entries for the “TGI (subpanel average)” value in [3] and in series [4] were 19.62 µM and 12.07 µM, respectively.
Turning to `CS(=O)(=O)c1ccc(C(=O)Nc2ccc(Cl)c(-c3ccccn3)c2)c(Cl)c1` [Vismodegib, vismodegib], the GI50 in [1] was 31.6 µM; in series [2], 25.1 µM; in series [5], 19.9 µM; in series [6], 39.8 µM; in series [7] it was 31.6 µM; in series [8] it was 31.6 µM. In addition, the GI50 in series [9] was 50.1 µM; in series [18] it was 50.1 µM; in series [11], 31.6 µM; in series [12], 39.8 µM; in series [13], 50.1 µM; in [14], 25.1 µM. Further, the GI50 in series [15] was 31.6 µM; in [16], 50.1 µM; in series [17], 31.6 µM.
